The NIST ThermoML archive (doi:10.1016/j.jct.2018.03.013)
± gives the expanded uncertainty stated by the source.

Experiment: xn = mol fraction of the nth substance listed
Conditions: 100 kPa, Liquid; for speed of sound: Frequency=3 MHz, Linear variable-path acoustic interferometer; for mass density: Pycnometric method

C=C(C)C(=O)OC [methyl methacrylate] + CC#N
Conditions | mass density [kg/m3] | speed of sound [m/s]
293.15 K, x2 = 0 | 943.38 ± 1 | 1200.5 ± 1.6
293.15 K, x2 = 0.0688 | 938.34 ± 1 | 1207.5 ± 1.6
293.15 K, x2 = 0.1376 | 932.76 ± 1 | 1214.3 ± 1.6
293.15 K, x2 = 0.1957 | 927.6 ± 1 | 1220 ± 1.6
293.15 K, x2 = 0.2716 | 920.18 ± 1 | 1227.3 ± 1.6
293.15 K, x2 = 0.3344 | 913.41 ± 1 | 1233.2 ± 1.6
293.15 K, x2 = 0.4135 | 903.99 ± 1 | 1240.5 ± 1.6
293.15 K, x2 = 0.4916 | 893.58 ± 1 | 1247.5 ± 1.6
293.15 K, x2 = 0.5649 | 882.66 ± 1 | 1254.2 ± 1.6
293.15 K, x2 = 0.6386 | 870.38 ± 1 | 1261 ± 1.6
293.15 K, x2 = 0.7084 | 857.36 ± 1 | 1267.7 ± 1.6
293.15 K, x2 = 0.7927 | 839.5 ± 1 | 1276.4 ± 1.6
293.15 K, x2 = 0.855 | 824.53 ± 1 | 1283.5 ± 1.6
293.15 K, x2 = 0.9073 | 810.58 ± 1 | 1290.3 ± 1.6
293.15 K, x2 = 0.9497 | 798.21 ± 1 | 1296.3 ± 1.6
298.15 K, x2 = 0 | 937.64 ± 1 | 1183.6 ± 1.6
298.15 K, x2 = 0.0688 | 932.64 ± 1 | 1190.6 ± 1.6
298.15 K, x2 = 0.1376 | 927.09 ± 1 | 1197.2 ± 1.6
298.15 K, x2 = 0.1957 | 921.95 ± 1 | 1202.7 ± 1.6
298.15 K, x2 = 0.2716 | 914.56 ± 1 | 1209.7 ± 1.6
298.15 K, x2 = 0.3344 | 907.81 ± 1 | 1215.3 ± 1.6
298.15 K, x2 = 0.4135 | 898.42 ± 1 | 1222.3 ± 1.6
298.15 K, x2 = 0.4916 | 888.04 ± 1 | 1229 ± 1.6
298.15 K, x2 = 0.5649 | 877.15 ± 1 | 1235.3 ± 1.6
298.15 K, x2 = 0.6386 | 864.91 ± 1 | 1241.7 ± 1.6
298.15 K, x2 = 0.7084 | 851.92 ± 1 | 1248 ± 1.6
298.15 K, x2 = 0.7927 | 834.09 ± 1 | 1256.2 ± 1.6
298.15 K, x2 = 0.855 | 819.15 ± 1 | 1263 ± 1.6
298.15 K, x2 = 0.9073 | 805.23 ± 1 | 1269.3 ± 1.6
298.15 K, x2 = 0.9497 | 792.88 ± 1 | 1275 ± 1.6
303.15 K, x2 = 0 | 931.9 ± 1 | 1168.5 ± 1.6
303.15 K, x2 = 0.0688 | 926.94 ± 1 | 1175.5 ± 1.6
303.15 K, x2 = 0.1376 | 921.42 ± 1 | 1182 ± 1.6
303.15 K, x2 = 0.1957 | 916.3 ± 1 | 1187.4 ± 1.6
303.15 K, x2 = 0.2716 | 908.94 ± 1 | 1194.1 ± 1.6
303.15 K, x2 = 0.3344 | 902.21 ± 1 | 1199.5 ± 1.6
303.15 K, x2 = 0.4135 | 892.85 ± 1 | 1206.2 ± 1.6
303.15 K, x2 = 0.4916 | 882.5 ± 1 | 1212.6 ± 1.6
303.15 K, x2 = 0.5649 | 871.64 ± 1 | 1218.6 ± 1.6
303.15 K, x2 = 0.6386 | 859.43 ± 1 | 1224.8 ± 1.6
303.15 K, x2 = 0.7084 | 846.47 ± 1 | 1230.8 ± 1.6
303.15 K, x2 = 0.7927 | 828.68 ± 1 | 1238.7 ± 1.6
303.15 K, x2 = 0.855 | 813.77 ± 1 | 1245.1 ± 1.6
303.15 K, x2 = 0.9073 | 799.87 ± 1 | 1251.2 ± 1.6
303.15 K, x2 = 0.9497 | 787.55 ± 1 | 1256.6 ± 1.6
308.15 K, x2 = 0 | 926.16 ± 1 | 1152.6 ± 1.6
308.15 K, x2 = 0.0688 | 921.23 ± 1 | 1159.6 ± 1.6
308.15 K, x2 = 0.1376 | 915.74 ± 1 | 1166 ± 1.6
308.15 K, x2 = 0.1957 | 910.65 ± 1 | 1171.2 ± 1.6
308.15 K, x2 = 0.2716 | 903.31 ± 1 | 1177.8 ± 1.6
308.15 K, x2 = 0.3344 | 896.61 ± 1 | 1183 ± 1.6
308.15 K, x2 = 0.4135 | 887.27 ± 1 | 1189.5 ± 1.6
308.15 K, x2 = 0.4916 | 876.95 ± 1 | 1195.7 ± 1.6
308.15 K, x2 = 0.5649 | 866.13 ± 1 | 1201.5 ± 1.6
308.15 K, x2 = 0.6386 | 853.94 ± 1 | 1207.4 ± 1.6
308.15 K, x2 = 0.7084 | 841.01 ± 1 | 1213.2 ± 1.6
308.15 K, x2 = 0.7927 | 823.27 ± 1 | 1220.8 ± 1.6
308.15 K, x2 = 0.855 | 808.39 ± 1 | 1227.1 ± 1.6
308.15 K, x2 = 0.9073 | 794.51 ± 1 | 1233 ± 1.6
308.15 K, x2 = 0.9497 | 782.21 ± 1 | 1238.2 ± 1.6
313.15 K, x2 = 0 | 920.42 ± 1 | 1135.4 ± 1.6
313.15 K, x2 = 0.0688 | 915.52 ± 1 | 1142.4 ± 1.6
313.15 K, x2 = 0.1376 | 910.06 ± 1 | 1148.7 ± 1.6
313.15 K, x2 = 0.1957 | 904.99 ± 1 | 1153.9 ± 1.6
313.15 K, x2 = 0.2716 | 897.68 ± 1 | 1160.3 ± 1.6
313.15 K, x2 = 0.3344 | 891 ± 1 | 1165.6 ± 1.6
313.15 K, x2 = 0.4135 | 881.69 ± 1 | 1172 ± 1.6
313.15 K, x2 = 0.4916 | 871.4 ± 1 | 1178.1 ± 1.6
313.15 K, x2 = 0.5649 | 860.61 ± 1 | 1183.8 ± 1.6
313.15 K, x2 = 0.6386 | 848.45 ± 1 | 1189.5 ± 1.6
313.15 K, x2 = 0.7084 | 835.55 ± 1 | 1195.2 ± 1.6
313.15 K, x2 = 0.7927 | 817.85 ± 1 | 1202.7 ± 1.6
313.15 K, x2 = 0.855 | 803 ± 1 | 1208.9 ± 1.6
313.15 K, x2 = 0.9073 | 789.15 ± 1 | 1214.7 ± 1.6
313.15 K, x2 = 0.9497 | 776.87 ± 1 | 1219.8 ± 1.6
318.15 K, x2 = 0 | 914.67 ± 1 | 1118.3 ± 1.6
318.15 K, x2 = 0.0688 | 909.81 ± 1 | 1125.1 ± 1.6
318.15 K, x2 = 0.1376 | 904.38 ± 1 | 1131.5 ± 1.6
318.15 K, x2 = 0.1957 | 899.33 ± 1 | 1136.6 ± 1.6
318.15 K, x2 = 0.2716 | 892.05 ± 1 | 1143.1 ± 1.6
318.15 K, x2 = 0.3344 | 885.39 ± 1 | 1148.2 ± 1.6
318.15 K, x2 = 0.4135 | 876.11 ± 1 | 1154.5 ± 1.6
318.15 K, x2 = 0.4916 | 865.85 ± 1 | 1160.5 ± 1.6
318.15 K, x2 = 0.5649 | 855.09 ± 1 | 1166.1 ± 1.6
318.15 K, x2 = 0.6386 | 842.96 ± 1 | 1171.8 ± 1.6
318.15 K, x2 = 0.7084 | 830.09 ± 1 | 1177.3 ± 1.6
318.15 K, x2 = 0.7927 | 812.43 ± 1 | 1184.6 ± 1.6
318.15 K, x2 = 0.855 | 797.61 ± 1 | 1190.7 ± 1.6
318.15 K, x2 = 0.9073 | 783.79 ± 1 | 1196.3 ± 1.6
318.15 K, x2 = 0.9497 | 771.53 ± 1 | 1201.4 ± 1.6
